According to PMC9533879 (European Journal of Medicinal Chemistry, 2021):

Key:
[1] = system: Vaccinia virus (strain Copenhagen); details: for IC50: read-out: IC50 Vaccinia

Compound | CC50 (Vero cell culture) | SI (CC50/IC50) Vaccinia [1] | IC50 [1] | times less active than the reference compound tecovirimat [1]
3,5-Dimethyl-N^1-(4-(trifluoromethyl)benzoyl)adamantane-1-carbohydrazide [Compound 17] | > 254 µM | 30.9/>8.2 | 30.9 µM | –
3-Ethyl-N^1-(4-(trifluoromethyl)benzoyl)adamantane-1-carbohydrazide [Compound 18] | 47 µM | 12.53/3.75 | 12.5 µM | –
O=C(NC12CC3CC(CC(C3)C1)C2)c1ccc(C(F)(F)F)cc1 [Compound 5, N-(Adamantan-1-yl)-4-(trifluoromethyl)benzamide] | – | – | – | 50
CCC12CC3CC(C1)CC(NC(=O)c1ccc(C(F)(F)F)cc1)(C3)C2 [Compound 6, N-(3-Ethylаdamantan-1-yl)-4-(trifluoromethyl)benzamide] | – | 4.1/>68 | – | –
CN(C(=O)c1ccc(C(F)(F)F)cc1)C12CC3CC(CC(C3)C1)C2 [Compound 7, N-(Adamantan-1-yl)-N-methyl-4-(trifluoromethyl)benzamide] | – | 4.85/>61 | – | –
O=C(NCC12CC3CC(CC(C3)C1)C2)c1ccc(Br)cc1 [Compound 9, N-((Adamantan-1-yl)methyl)-4-bromobenzamide] | – | 8.3/28 | – | –
O=C(NC1C2CC3CC(C2)CC1C3)c1ccc(Br)cc1 (centres unmarked) [Compound 11, N-(Adamantan-2-yl)-4-bromobenzamide] | – | 3.06/>98 | – | –
O=C(NNC(=O)C12CC3CC(CC(C3)C1)C2)c1ccc(C(F)(F)F)cc1 [Compound 16, N^1-(4-(Trifluoromethyl)benzoyl)adamantane-1-carbohydrazide] | > 273 µM | 1.07/>255 | – | –
O=C(NNC(=O)c1ccc(C(F)(F)F)cc1)NC12CC3CC(CC(C3)C1)C2 [Compound 20, N^1-(Adamantan-1-yl)-2-(4-(trifluoromethyl)benzoyl)hydrazine-1-carboxamide] | – | 36.26/2.6 | – | –
C/C(=N\NC(=O)c1ccc(C(F)(F)F)cc1)C12CC3CC(CC(C3)C1)C2 [Compound 31, N^1-(1-(Adamantan-1-yl)ethylidene)-4-(trifluoromethyl)benzohydrazide] | – | 10.55/>26 | – | –
CC12CC3CC(C1)CC(NC(=O)c1ccc(C(F)(F)F)cc1)(C3)C2 [Compound 37] | – | 8.98/>33 | – | –
(rac)-N^1-(1-(Adamantan-1-yl)ethyl)-4-(trifluoromethyl)benzohydrazide [Compound 32] | 14 µM | 0.515/27 | 0.515 µM | –
N^1-(3-Ethyladamantan-1-yl)-4-(trifluoromethyl)benzohydrazide [Compound 36] | 2.5 µM | 1.66/1.5 | 1.66 µM | –
N^1-(5-Chloroadamantan-2-yl)-4-(trifluoromethyl)benzohydrazide [Compound 28] | ~215 µM | 3.52/61 | 3.52 µM | –
N^1-(Adamantan-1-yl)-4-(trifluoromethyl)benzohydrazide [Compound 35] | 2.8 µM | – | – | –
N^1-(Adamantan-2-yl)-4-(trifluoromethyl)benzohydrazide [Compound 27] | > 296 µM | 2.8/>103 | 2.8 µM | –
